Results: PubChem BioAssay AID2581 (Johns Hopkins Ion Channel Center, 2010)
Active and inactive are the calls of the source.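 Rule for the calls: active = any inhibition of Kir2.1 potassium channel current, measured at -100 mV, at any tested dose; inactive = no inhibition seen at any dose.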

Target: Inward rectifier potassium channel 2 (Mus musculus) (UniProt P35561)
Experiment: Kir2.1 inward rectifier current inhibition – cell-based, automated electrophysiology, IonWorks patch clamp, orthogonal assay for Kir2.1 inhibitor project, dose response (AID 2581)
Details: Kir2.1 cell line, IonWorks patch clamp current at -100 mV

Inward rectifier potassium channel 2 (Mus musculus), sequence (P35561 whole entry, looked up): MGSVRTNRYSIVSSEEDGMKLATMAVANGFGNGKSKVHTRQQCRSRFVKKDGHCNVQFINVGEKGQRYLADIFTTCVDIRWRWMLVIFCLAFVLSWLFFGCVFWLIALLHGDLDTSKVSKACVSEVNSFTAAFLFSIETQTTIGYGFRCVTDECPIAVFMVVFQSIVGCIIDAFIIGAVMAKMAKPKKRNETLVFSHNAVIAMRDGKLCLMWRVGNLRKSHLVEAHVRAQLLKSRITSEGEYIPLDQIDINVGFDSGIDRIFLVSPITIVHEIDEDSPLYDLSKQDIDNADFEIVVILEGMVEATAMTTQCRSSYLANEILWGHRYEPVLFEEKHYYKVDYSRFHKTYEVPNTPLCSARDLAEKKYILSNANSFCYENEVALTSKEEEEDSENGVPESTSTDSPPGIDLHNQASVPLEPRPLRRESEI

SMILES	IC50
COc1ccc(CNC2CCCc3ccccc32)cc1 (centres undefined)	9.05 µM
COc1ccc(CNCc2ccc(OC)c(Cl)c2)cc1	5.11 µM
COc1ccc(CNCc2ccc(OC)c3ccccc23)cc1	20.6 µM
COc1ccc(CNCc2cccc(Cl)c2)cc1	8.99 µM
COc1ccc(CNCc2ccc(OC(F)(F)F)cc2)cc1	24.1 µM
COc1ccc(CNCc2ccc(OC)c3ccccc23)cc1OC	23.5 µM
COc1ccccc1CNCc1cccc2ccccc12	18.1 µM
COc1ccc(CNCc2cccc3ccccc23)cc1OC	23 µM
COc1ccc(CNCc2ccc(OC)cc2)cc1	13.3 µM
COc1ccc(CNCc2ccc(C(C)(C)C)cc2)cc1	14 µM
COc1ccc(CNCc2ccc(C)cc2)cc1	8.01 µM
COc1ccc(CNCc2ccccc2C)cc1	16.8 µM
COc1ccc(CNCc2ccc3ccccc3c2)cc1	9.76 µM
COc1ccc(CNCc2cccc3ccccc23)c(OC)c1	28.2 µM
COc1ccc(CNCc2ccc(Cl)cc2)cc1	11.5 µM
COc1cccc(CNCc2cccc3ccccc23)c1	23.6 µM

Same assay, conditions: Kir2.1 cell line, IonWorks patch clamp current at -100 mV; at 30 µM (top of the series)

SMILES	channel activity, lower = inhibition
FC(F)(F)Oc1ccc(CNCc2cccc3ccccc23)cc1	inactive
Fc1cccc(CNCc2cccc3ccccc23)c1F	inactive
COc1ccc(CNCc2ccccc2)cc1	inactive
COc1ccc(CNCc2cccnc2)cc1	inactive
Clc1ccc(CNCc2cccc3ccccc23)c(Cl)c1	inactive
COc1ccc(CNC(=O)c2cccc3ccccc23)cc1	inactive
COc1ccc(CNCc2ccncc2)cc1	inactive
COc1ccc(C(=O)NCc2cccc3ccccc23)cc1	inactive
COc1ccc(C(C)NCc2cccc3ccccc23)cc1 (centres undefined)	inactive
COc1cc(CN(C)Cc2cccc3ccccc23)c([N+](=O)[O-])cc1OC	inactive
COc1ccc(CNC(C)c2cccc3ccccc23)cc1 (centres undefined)	inactive
COc1ccc(CNCc2ccccn2)cc1	inactive
Clc1ccc(CNCc2cccc3ccccc23)cc1	inactive
COc1cc(CN(C)Cc2cccc3ccccc23)ccc1OCc1ccccc1	inactive
COc1ccc(COCc2cccc3ccccc23)cc1	inactive
Clc1cccc(CNCc2cccc3ccccc23)c1	inactive
COc1cc(Br)c(CN(C)Cc2cccc3ccccc23)cc1OC	inactive
CC(C)(C)c1ccc(CNCc2cccc3ccccc23)cc1	inactive
